According to patent publication US20250345391A1, “COMPOSITIONS AND METHODS FOR THE TREATMENT OF SEPSIS” (Children's Hospital Medical Center, priority 2022, published 2025):

How the values were obtained:
AMPK = experiment: Western blot of AMPKα and pAMPKα in thoracic aorta cytosol after CLP; format: in vivo, Male C57BL/6 mice; conditions: 6 h after CLP; colivelin i.p. at 1 h after CLP; vs vehicle; dose-independent
Source text: The investigation conformed to the National Institutes of Health Guide for the Care and Use of Laboratory Animals (Eighth Edition, 2011) and was approved by the Institutional Animal Care and Use Committee of the Cincinnati Children's Hospital Medical Center. Male C57BL/6 mice were obtained from Charles River Laboratories International, Inc. (Wilmington, MA). Mice were used at 3-5 months of age to mimic the equivalent for human ranges from 20-25 years (29). Male mice only were chosen for the experimentation to avoid interference from female hormonal fluctuations in sepsis responses during the estrous cycle. Mice were housed in pathogen-free conditions under a 10-h light/14-h dark cycle with free access to food and water. […]
Subcellular fractionation was performed using a centrifugation model. […] The Bradford protein assay was then used for quantitative determination of total proteins.
Cytosol content of total AMPKα1/α2 and its phosphorylated form pAMPKα1/α2 (Santa Cruz Biotechnology, Dallas, TX, USA), cytosol and nuclear content of STAT3 and its phosphorylated forms pSTAT3(Tyr705) and pSTAT3(Ser727) (Cell Signaling Technology, Danvers, MA, USA) were determined by immunoblot analyses; β-actin was concomitantly probed with mouse anti-β-actin (Santa Cruz Biotechnology) as a loading control for both cytosol and nuclear proteins. […] The immunoreaction was detected by near-infrared fluorescence. […]

[1] = test system: TNFα, IL-1β, IL-6, IL-10, KC, MIP-1α; experiment: Plasma levels of cytokines after CLP sepsis (multiplex array); format: in vivo, Male C57BL/6 mice; conditions: 6 h after CLP, vs vehicle
Source text: The investigation conformed to the National Institutes of Health Guide for the Care and Use of Laboratory Animals (Eighth Edition, 2011) and was approved by the Institutional Animal Care and Use Committee of the Cincinnati Children's Hospital Medical Center. Male C57BL/6 mice were obtained from Charles River Laboratories International, Inc. (Wilmington, MA). Mice were used at 3-5 months of age to mimic the equivalent for human ranges from 20-25 years (29). Male mice only were chosen for the experimentation to avoid interference from female hormonal fluctuations in sepsis responses during the estrous cycle. Mice were housed in pathogen-free conditions under a 10-h light/14-h dark cycle with free access to food and water. Mice were anesthetized with 2.0% isoflurane in 50% oxygen and polymicrobial sepsis was induced by cecal ligation and puncture (CLP) (30). After a midline laparotomy, the cecum was exteriorized, ligated and punctured twice with a 23-G needle. The cecum was then returned into the peritoneal cavity and the abdominal incision was closed. After the procedure, mice were randomly assigned to three treatment groups: a vehicle-treated group received distilled water (200 μl/mouse) intraperitoneally (i.p.); a 100 μg colivelin-treated group received the colivelin at 100 μg/kg i.p., and a 200 μg colivelin-treated group received the colivelin at 200 μg/kg i.p. at 1 h after CLP. The intraperitoneal injection was chosen to allow for a rapid uptake and bioavailability of the peptide. All groups of mice also received fluid resuscitation (35 ml/kg normal saline solution subcutaneously) immediately after, at 3 h and 12 h after the CLP procedure. To minimize pain at the surgical incision site, lidocaine hydrochloride (1%, 4 mg/kg total dose) was applied locally immediately after the procedure. […] Mice were then sacrificed at 0, 6 and 18 h after CLP. Blood, lungs, kidneys, liver, and thoracic aortas were collected for biochemical assays. Plasma levels of tumor necrosis factor-α (TNFα), interleukin (IL)-1β, IL-6, IL-10, keratinocytes-derived chemokine (KC), and macrophage inflammatory proteins (MIP-1α) were used as indices of the systemic inflammatory response and were evaluated by a commercially available multiplex array system (Milliplex, Millipore Corporation, Billerica, MA). Plasma levels of endoglin, intercellular adhesion molecule-1 (ICAM-1), P-selectin, proprotein convertase subtilisin/kexin type 9 (PCSK9), and angiopoietin-2 (Ang 2) were used as indices of endothelial injury and were evaluated by a commercially available multiplex array system (R&D Systems, Minneapolis, MN). Plasma levels of syndecan-1 were used as indices of glycocalyx damage and were evaluated by a mouse syndecan-1 sandwich-type enzyme-linked immunosorbent assay (ELISA) kit (Boster Biological Technology Co., California, US). Assays were performed using the protocols recommended by the manufacturer.

[2] = colivelin 100 or 200 μg/kg i.p. at 1 h after CLP, dose-independent
[3] = colivelin 100 or 200 μg/kg i.p., trend towards reduction

Colivelin (SALLRSIPAPAGASRLLLLTGEIDLP)
Ratio of the phosphorylated/total forms of AMPKα (p-AMPKα/AMPKα), cytosol of thoracic aortas (AMPK): significantly increased
Plasma levels of IL-10 [1, 2]: significantly decreased
Plasma levels of MIP-1α [1, 2]: significantly decreased
Plasma levels of TNF-α [1, 2]: significantly decreased
Plasma levels of IL-1β [1, 3]: not statistically different
Plasma levels of IL-6 [1, 3]: not statistically different
Plasma levels of KC ([1]; colivelin at 200 μg/kg i.p. at 1 h after CLP): significantly reduced
